How the values were obtained:
[1] = test system: MV4-11 cells; experiment: MV4-11 cellular proliferative assay, Assay Format A (CellTiter-Glo, 120 h); type: cell-based; conditions: Homo sapiens, Assay format A, 120 h, read-out: IC50 (MV4-11 cellular proliferative assay)
Protocol: An MV4-11 proliferation assay was used to test the ability of compounds to reduce cell viability. MV4-11 cells (ATCC #CRL9591) were grown in IMDM medium (11510596, Gibco) supplemented with 10% fetal bovine serum (F7524, Gibco) and 1% Penicillin/Streptomycin (15140-122, Gibco) at 37° C. with 5% CO2. Cells were seeded in 384-well Elplasia plates (4447, Corning) at a density of 50 cells/well and treated with vehicle (DMSO) or compounds (10 serial semi-log dilutions, 30 μM as top concentration).
After 120 hours of treatment, cells were incubated for 10 min at RT with the CellTiter-Glo (CTG) reagent (G7571, Promega). Measurement of the luminescence signal was performed on a microplate reader (Ensight, PerkinElmer). CTG reagent measures the amount of ATP, which is directly proportional to the number of cells, to determine the number of viable cells in culture.
The data were analysed as follows:
[formula] • where x is the measured raw signal value of a well, (cr) is the median of the measured signal values for the Central Reference (DMSO) wells on a plate, (sr) is the median of the measured signal values for the Scale Reference (reference compound) wells on a plate.
[formula] • where the experimental set-up assumes the Hill parameters in certain ranges: S0~Central Reference (CR) from normalization (=Bottom), Sinf~Scale Reference (SR) from normalization (=Top), nHill ~1, AC50~within the measured concentration range.

[2] = target: T1, MLLT1 (Homo sapiens, UniProt Q03111); experiment: MLLT1 degradation assay in MV4-11 cells (JESS, 24 h); type: cell-based; parameters: endogenous in cells; host or cells: MV4-11 (ATCC CRL-9591); conditions: vs DMSO control
T1 sequence (Q03111 1-559): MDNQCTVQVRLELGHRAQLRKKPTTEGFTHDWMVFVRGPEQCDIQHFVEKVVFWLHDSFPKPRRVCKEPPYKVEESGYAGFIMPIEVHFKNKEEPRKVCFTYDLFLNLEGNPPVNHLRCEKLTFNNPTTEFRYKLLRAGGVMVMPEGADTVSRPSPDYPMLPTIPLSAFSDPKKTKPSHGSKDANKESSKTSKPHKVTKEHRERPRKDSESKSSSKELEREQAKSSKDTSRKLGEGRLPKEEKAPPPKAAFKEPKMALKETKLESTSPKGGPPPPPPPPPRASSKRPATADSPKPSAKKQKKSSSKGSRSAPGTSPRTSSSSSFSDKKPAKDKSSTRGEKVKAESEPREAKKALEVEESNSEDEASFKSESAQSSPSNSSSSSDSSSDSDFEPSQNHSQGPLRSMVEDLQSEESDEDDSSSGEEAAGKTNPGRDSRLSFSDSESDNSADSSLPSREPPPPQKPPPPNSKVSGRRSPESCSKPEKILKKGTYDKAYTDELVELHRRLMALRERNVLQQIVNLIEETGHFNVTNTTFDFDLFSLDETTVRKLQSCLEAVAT
Outline: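 MV4-11 cells treated at 1000, 100 and 10 nM (0.1% DMSO) for 24 h at 37° C; lysates (4 ug protein) run on JESS capillary immunoassay with MLLT1 and GAPDH antibodies. Peak areas give % degradation versus DMSO, binned A (≥75%) to D (<25%).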

IC50 [1] [nM] | MLLT1% Degradation @ 0.01 μM [2] | MLLT1% Degradation @ 0.1 μM [2] | MLLT1% Degradation @ 1 μM [2] | Compound
< 100 | A (Category A: A≥75% degradation) | A (Category A: A≥75% degradation) | A (Category A: A≥75% degradation) | Cc1nn(CCCCNc2cccc3c2C(=O)N(C2CCC(=O)NC2=O)C3=O)c2cc(C(=O)Nc3cc4[nH]c([C@H]5CCCN5C)cc4cn3)ccc12 (stereo partly drawn) [Example 21, 1-(4-((2-(2,6-dioxopiperidin-3-yl)-1,3-dioxoisoindolin-4-yl)amino)butyl)-3-methyl-N-(2-((R)-1-methylpyrrolidin-2-yl)-1H-pyrrolo[3,2-c]pyridin-6-yl)-1H-indazole-6-carboxamide]
< 100 | A (Category A: A≥75% degradation) | A (Category A: A≥75% degradation) | A (Category A: A≥75% degradation) | Cc1nn(CCCCCCNc2cccc3c2C(=O)N(C2CCC(=O)NC2=O)C3=O)c2cc(C(=O)Nc3cc4[nH]c([C@H]5CCCN5C)cc4cn3)ccc12 (stereo partly drawn) [Example 22, 1-(6-{[2-(2,6-dioxopiperidin-3-yl)-1,3-dioxoisoindol-4-yl]amino}hexyl)-3-methyl-N-{2-[(2R)-1-methylpyrrolidin-2-yl]-1H-pyrrolo[3,2-c]pyridin-6-yl}indazole-6-carboxamide]
< 100 | D (Category D: D<25% degradation) | D (Category D: D<25% degradation) | B (Category B: 50%≤B<75% degradation) | Cc1nn(CCCCCN2CCN(c3cccc4c3C(=O)N(C3CCC(=O)NC3=O)C4=O)CC2)c2cc(C(=O)Nc3cc4[nH]c([C@H]5CCCN5C)cc4cn3)ccc12 (stereo partly drawn) [Example 47, 1-(5-(4-(2-(2,6-dioxopiperidin-3-yl)-1,3-dioxoisoindolin-4-yl)piperazin-1-yl)pentyl)-3-methyl-N-(2-((R)-1-methylpyrrolidin-2-yl)-1H-pyrrolo[3,2-c]pyridin-6-yl)-1H-indazole-6-carboxamide]
< 100 | A (Category A: A≥75% degradation) | A (Category A: A≥75% degradation) | A (Category A: A≥75% degradation) | Cc1nn(CCCC2CCN(c3cccc4c3C(=O)N(C3CCC(=O)NC3=O)C4=O)CC2)c2cc(C(=O)Nc3cc4[nH]c([C@H]5CCCN5C)cc4cn3)ccc12 (stereo partly drawn) [Example 27, 1-(3-(1-(2-(2,6-dioxopiperidin-3-yl)-1,3-dioxoisoindolin-4-yl)piperidin-4-yl)propyl)-3-methyl-N-(2-((R)-1-methylpyrrolidin-2-yl)-1H-pyrrolo[3,2-c]pyridin-6-yl)-1H-indazole-6-carboxamide]
< 100 |  | A (Category A: A≥75% degradation) | A (Category A: A≥75% degradation) | Cc1nn(CCOCCNc2cccc3c2C(=O)N(C2CCC(=O)NC2=O)C3=O)c2cc(C(=O)Nc3cc4[nH]c([C@H]5CCCN5C)cc4cn3)ccc12 (stereo partly drawn) [Example 26, 1-(2-(2-((2-(2,6-dioxopiperidin-3-yl)-1,3-dioxoisoindolin-4-yl)amino)ethoxy)ethyl)-3-methyl-N-(2-((R)-1-methylpyrrolidin-2-yl)-1H-pyrrolo[3,2-c]pyridin-6-yl)-1H-indazole-6-carboxamide]
< 100 | A (Category A: A≥75% degradation) | A (Category A: A≥75% degradation) | A (Category A: A≥75% degradation) | CN1CCC[C@@H]1c1cc2cnc(NC(=O)c3ccc4c(cnn4CCCCCCCCNc4cccc5c4C(=O)N(C4CCC(=O)NC4=O)C5=O)c3)cc2[nH]1 (stereo partly drawn) [Example 36, 1-(8-((2-(2,6-dioxopiperidin-3-yl)-1,3-dioxoisoindolin-4-yl)amino)octyl)-N-(2-((R)-1-methylpyrrolidin-2-yl)-1H-pyrrolo[3,2-c]pyridin-6-yl)-1H-indazole-5-carboxamide]
< 100 |  | A (Category A: A≥75% degradation) | A (Category A: A≥75% degradation) | Cc1nn(CCOCCOCCNc2cccc3c2C(=O)N(C2CCC(=O)NC2=O)C3=O)c2cc(C(=O)Nc3cc4[nH]c([C@H]5CCCN5C)cc4cn3)ccc12 (stereo partly drawn) [Example 25, 1-(2-(2-(2-((2-(2,6-dioxopiperidin-3-yl)-1,3-dioxoisoindolin-4-yl)amino)ethoxy)ethoxy)ethyl)-3-methyl-N-(2-((R)-1-methylpyrrolidin-2-yl)-1H-pyrrolo[3,2-c]pyridin-6-yl)-1H-indazole-6-carboxamide]

The next lines start with the molecule.

Compound | IC50 [1] [nM] | MLLT1% Degradation @ 0.01 μM [2] | MLLT1% Degradation @ 0.1 μM [2] | MLLT1% Degradation @ 1 μM [2]
Cc1nn(CCCCCN2CCN(c3cc4c(cc3F)C(=O)N(C3CCC(=O)NC3=O)C4=O)CC2)c2cc(C(=O)Nc3cc4[nH]c([C@H]5CCCN5C)cc4cn3)ccc12 (stereo partly drawn) [Example 23, 1-(5-(4-(2-(2,6-dioxopiperidin-3-yl)-6-fluoro-1,3-dioxoisoindolin-5-yl)piperazin-1-yl)pentyl)-3-methyl-N-(2-((R)-1-methylpyrrolidin-2-yl)-1H-pyrrolo[3,2-c]pyridin-6-yl)-1H-indazole-6-carboxamide] | < 100 | A (Category A: A≥75% degradation) | A (Category A: A≥75% degradation) | A (Category A: A≥75% degradation)
CCN1CCC[C@@H]1c1cc2cnc(NC(=O)c3ccc4c(C)nn(CCCCCCCC#Cc5cccc6c5CN(C5CCC(=O)NC5=O)C6=O)c4c3)cc2[nH]1 (stereo partly drawn) [Example 48, 1-(9-(2-(2,6-dioxopiperidin-3-yl)-1-oxoisoindolin-4-yl)non-8-yn-1-yl)-N-(2-((R)-1-ethylpyrrolidin-2-yl)-1H-pyrrolo[3,2-c]pyridin-6-yl)-3-methyl-1H-indazole-6-carboxamide] | < 100 | C (Category C: 25%≤C<50% degradation) | B (Category B: 50%≤B<75% degradation) | A (Category A: A≥75% degradation)
Cc1nn(CCCCCC#Cc2cccc3c2CN(C2CCC(=O)NC2=O)C3=O)c2cc(C(=O)Nc3cc4[nH]c([C@H]5CCCN5C)cc4cn3)ccc12 (stereo partly drawn) [Example 30, 1-(7-(2-(2,6-dioxopiperidin-3-yl)-1-oxoisoindolin-4-yl)hept-6-yn-1-yl)-3-methyl-N-(2-((R)-1-methylpyrrolidin-2-yl)-1H-pyrrolo [3,2-c]pyridin-6-yl)-1H-indazole-6-carboxamide] | < 100 | A (Category A: A≥75% degradation) | A (Category A: A≥75% degradation) | A (Category A: A≥75% degradation)
Cc1nn(CCCCCCCC#Cc2cccc(C(=O)N[C@H]3CCC(=O)NC3=O)n2)c2cc(C(=O)Nc3cc4[nH]c([C@H]5CCCN5C)cc4cn3)ccc12 [Example 42, 1-(9-(6-(((S)-2,6-dioxopiperidin-3-yl)carbamoyl)pyridin-2-yl)non-8-yn-1-yl)-3-methyl-N-(2-((R)-1-methylpyrrolidin-2-yl)-1H-pyrrolo[3,2-c]pyridin-6-yl)-1H-indazole-6-carboxamide] | < 100 | B (Category B: 50%≤B<75% degradation) | A (Category A: A≥75% degradation) | A (Category A: A≥75% degradation)
Cc1nn(CCCOCC#Cc2cccc3c2CN(C2CCC(=O)NC2=O)C3=O)c2cc(C(=O)Nc3cc4[nH]c([C@H]5CCCN5C)cc4cn3)ccc12 (stereo partly drawn) [Example 31, 1-(3-((3-(2-(2,6-dioxopiperidin-3-yl)-1-oxoisoindolin-4-yl)prop-2-yn-1-yl)oxy)propyl)-3-methyl-N-(2-((R)-1-methylpyrrolidin-2-yl)-1H-pyrrolo[3,2-c]pyridin-6-yl)-1H-indazole-6-carboxamide] | < 100 | C (Category C: 25%≤C<50% degradation) | B (Category B: 50%≤B<75% degradation) | A (Category A: A≥75% degradation)

Source: US20260199484A1, “PROTAC DEGRADERS OF MLLT1 AND/OR MLLT3” (DARK BLUE THERAPEUTICS LTD, priority 2024, published 2026)
